Laboratory results: EPA's CvTdb concentration-time database

Experiments:
Test in all cases: concentration in plasma after dosing
Mouse [1] = conditions: 3 h; dosed: 2-Hydroxy-4-methoxybenzophenone; 50 mg/kg; iv; Male; B6C3F1
Mouse [2] = conditions: 0.25 h; dosed: 2-Hydroxy-4-methoxybenzophenone; 250 mg/kg; oral; Female; B6C3F1
Rat [3] = tested on: Rat
Mouse [4] = conditions: 2 h; dosed: 2-Hydroxy-4-methoxybenzophenone; 500 mg/kg; oral; Female; B6C3F1
Rat [5] = conditions: 5 min; dosed: Nitrite; 80 mg/kg; oral; Female; F344

COc1ccc(C(=O)c2ccccc2)c(O)c1 [2-Hydroxy-4-methoxybenzophenone]
Conditions | concentration in plasma [µg/mL]
Mouse [1] | 0.218
Mouse [2] | 0.0883
Mouse [4] | 0.0816

concentration in plasma [µg/mL], Rat [3], dosed: 2-Hydroxy-4-methoxybenzophenone, F344
Conditions | 0.25 h | 2 h | 2.5 min | 3 h | 4 h | 6 h | 10 h | 10 min
8 mg/kg, iv, Female | 1.56 | 0.0756 | – | – | 0.0368 | – | – | 2.54
8 mg/kg, iv, Male | 1.86 | 0.0992 | – | – | – | – | 0.0701 | 0.0725
100 mg/kg, oral, Female | 0.0865 | – | – | 0.0145 | 0.0106 | – | – | 0.113
100 mg/kg, oral, Male | 0.171 | – | – | 0.0173 | 0.0424 | – | – | 0.14
250 mg/kg, oral, Female | 0.331 | – | – | 0.0719 | 0.0871 | – | – | 0.0327
250 mg/kg, oral, Male | 0.0828 | – | – | 0.0546 | 0.0652 | – | – | 0.0194
500 mg/kg, oral, Female | 0.231 | – | 0.00713 | – | 0.452 | – | 0.0497 | 0.113
500 mg/kg, oral, Male | 0.614 | – | – | – | 0.45 | 0.225 | 0.0652 | 0.116

O=N[O-] [Nitrite]
Conditions | concentration in plasma [µg/mL]
Rat [5] | 7.3

concentration in plasma [µg/mL], Rat [3], dosed: Nitrite
Conditions | Female | Male
0.5 h, 20 mg/kg, iv, F344 | – | 2.6
0.5 h, 40 mg/kg, oral, F344 | 6 | 1.9
0.5 h, 80 mg/kg, oral, F344 | 11.3 | –
0.75 h, 20 mg/kg, iv, F344 | – | 2.4
1 h, 20 mg/kg, iv, F344 | – | 2
1 h, 40 mg/kg, oral, F344 | 2.9 | 3.4
1 h, 80 mg/kg, oral, F344 | 9.7 | –
2 h, 40 mg/kg, oral, F344 | 2.6 | –
2 h, 80 mg/kg, oral, F344 | 7.5 | –
2 min, 20 mg/kg, iv, F344 | – | 14.8
2 min, 40 mg/kg, oral, F344 | 3.1 | –
2 min, 40 mg/kg, oral, Harlan Sprague-Dawley | 2.2 | –
2 min, 80 mg/kg, oral, F344 | 8.2 | –
4 h, 80 mg/kg, oral, F344 | 2.4 | –
5 min, 20 mg/kg, iv, F344 | – | 3.1
5 min, 40 mg/kg, oral, F344 | 4.8 | –
5 min, 40 mg/kg, oral, Harlan Sprague-Dawley | 1.7 | –
5 min, 80 mg/kg, oral, F344 | 12.4 | –
6 h, 80 mg/kg, oral, F344 | 2 | –
8 h, 80 mg/kg, oral, F344 | 1.7 | –
10 h, 80 mg/kg, oral, F344 | 1.7 | –
10 min, 20 mg/kg, iv, F344 | – | 4.3
10 min, 40 mg/kg, oral, F344 | 5.9 | 3.4
10 min, 40 mg/kg, oral, Harlan Sprague-Dawley | 2.5 | –
10 min, 80 mg/kg, oral, F344 | 7.5 | –
20 min, 20 mg/kg, iv, F344 | – | 0.9
